# Source: patent US12077503B2, “Substituted cyclic amides and their use as herbicides” (FMC CORPORATION, priority 2015, dated 2024)
# Experiments:
# Assay type in all cases: in vivo
# [1] = tested on: barnyardgrass (Echinochloa crus-galli); experiment: Test G Pre-Emergence Protocol; conditions: evaluated after 13 days
# Experimental: (§1) Seeds of corn (Zea mays), giant foxtail (Setaria faberi), barnyardgrass (Echinochloa crus-galli), ivy-leaved morning glory (Ipomoea hederacea), redroot pigweed (Amaranthus retroflexus) and velvetleaf (Abutilon theophrasti) were sown in standard soil in pots. After cultivation for one day under controlled conditions in a glasshouse (at 24/16° C., day/night; 14 hours light; 65% humidity), the plants were sprayed with an aqueous spray solution derived from the formulation of the technical active ingredient in acetone/water (50:50) solution containing 0.5% Tween 20 (polyoxyethylene sorbitan monolaurate, CAS RN 9005-64-5) to give a final dose of 15.625, 62.5 or 250 g/ha of test compound.
# (§2) The test plants were then grown on under controlled conditions in a glasshouse (at 24/16° C., day/night; 14 hours light; 65% humidity) and watered twice daily. After 13 days the test was evaluated (100=total damage to plant; 0=no damage to plant). A dash (-) means no test result.
# [2] = tested on: corn (Zea mays); experiment: Test G Pre-Emergence Protocol; conditions: evaluated after 13 days
# Experimental: as §1, §2
# [3] = tested on: giant foxtail (Setaria faberi); experiment: Test G Pre-Emergence Protocol; conditions: evaluated after 13 days
# Experimental: as §1, §2
# [4] = tested on: ivy-leaved morning glory (Ipomoea hederacea); experiment: Test G Pre-Emergence Protocol; conditions: evaluated after 13 days
# Experimental: as §1, §2
# [5] = tested on: redroot pigweed (Amaranthus retroflexus); experiment: Test G Pre-Emergence Protocol; conditions: evaluated after 13 days
# Experimental: as §1, §2
# [6] = tested on: velvetleaf (Abutilon theophrasti); experiment: Test G Pre-Emergence Protocol; conditions: evaluated after 13 days
# Experimental: as §1, §2
# [7] = tested on: barnyardgrass (Echinochloa crus-galli); experiment: Test G Post-Emergence Protocol
# Experimental: as §1, with “8 days” for “one day”
# as §2
# [8] = tested on: corn (Zea mays); experiment: Test G Post-Emergence Protocol
# Experimental: as §1, with “8 days” for “one day”
# as §2
# [9] = tested on: giant foxtail (Setaria faberi); experiment: Test G Post-Emergence Protocol
# Experimental: as §1, with “8 days” for “one day”
# as §2
# [10] = tested on: ivy-leaved morning glory (Ipomoea hederacea); experiment: Test G Post-Emergence Protocol
# Experimental: as §1, with “8 days” for “one day”
# as §2
# [11] = tested on: redroot pigweed (Amaranthus retroflexus); experiment: Test G Post-Emergence Protocol
# Experimental: as §1, with “8 days” for “one day”
# as §2
# [12] = tested on: velvetleaf (Abutilon theophrasti); experiment: Test G Post-Emergence Protocol
# Experimental: as §1, with “8 days” for “one day”
# as §2
# [13] = tested on: Kochia (Kochia scoparia); experiment: Test A preemergence; conditions: Preemergence
# Source text: (§3) Seeds of plant species selected from barnyardgrass (Echinochloa crus-galli), Kochia (Kochia scoparia), ragweed (common ragweed, Ambrosia elatior), ryegrass, Italian (Italian ryegrass, Lolium multiflorum), crabgrass, large (Digitaria sanguinalis), giant foxtail (Setaria faberii), green foxtail (Setaria viridis), morningglory (Ipomoea spp.), pigweed (Amaranthus retroflexus), velvetleaf (Abutilon theophrasti), wheat (Triticum aestivum), and corn (Zea mays) were planted into a blend of loam soil and sand and treated preemergence with a directed soil spray using test chemicals formulated in anon-phytotoxic solvent mixture which included a surfactant.
# (§4) At the same time, plants selected from these crop and weed species and also blackgrass (Alopecurus myosuroides), and Galium (catchweed bedstraw, Galium aparine) were planted in pots containing the same blend of loam soil and sand and treated with postemergence applications of test chemicals formulated in the same manner. Plants ranged in height from 2 to 10 cm and were in the one- to two-leaf stage for the postemergence treatment. Treated plants and untreated controls were maintained in a greenhouse for approximately 10 d, after which time all treated plants were compared to untreated controls and visually evaluated for injury. Plant response ratings, summarized in Table A, are based on a 0 to 100 scale where 0 is no effect and 100 is complete control. A dash (-) response means no test result.
# [14] = tested on: barnyardgrass (Echinochloa crus-galli); experiment: Test A preemergence; conditions: Preemergence
# Source text: as §3, §4
# [15] = tested on: giant foxtail (Setaria faberii); experiment: Test A preemergence; conditions: Preemergence
# Source text: as §3, §4
# [16] = tested on: pigweed (Amaranthus retroflexus); experiment: Test A preemergence; conditions: Preemergence
# Source text: as §3, §4
# [17] = tested on: ragweed (common ragweed, Ambrosia elatior); experiment: Test A preemergence; conditions: Preemergence
# Source text: as §3, §4
# [18] = tested on: ryegrass, Italian (Italian ryegrass, Lolium multiflorum); experiment: Test A preemergence; conditions: Preemergence
# Source text: as §3, §4
# [19] = tested on: Galium (catchweed bedstraw, Galium aparine); experiment: Test A postemergence
# Source text: as §3, §4
# [20] = tested on: Kochia (Kochia scoparia); experiment: Test A postemergence
# Source text: as §3, §4
# [21] = tested on: barnyardgrass (Echinochloa crus-galli); experiment: Test A postemergence
# Source text: as §3, §4
# [22] = tested on: blackgrass (Alopecurus myosuroides); experiment: Test A postemergence
# Source text: as §3, §4
# [23] = tested on: corn (Zea mays); experiment: Test A postemergence
# Source text: as §3, §4
# [24] = tested on: giant foxtail (Setaria faberii); experiment: Test A postemergence
# Source text: as §3, §4
# [25] = tested on: pigweed (Amaranthus retroflexus); experiment: Test A postemergence
# Source text: as §3, §4
# [26] = tested on: ragweed (common ragweed, Ambrosia elatior); experiment: Test A postemergence
# Source text: as §3, §4
# [27] = tested on: ryegrass, Italian (Italian ryegrass, Lolium multiflorum); experiment: Test A postemergence
# Source text: as §3, §4
# [28] = tested on: wheat (Triticum aestivum); experiment: Test A postemergence
# Source text: as §3, §4
# [29] = 62.5 g ai/ha, 100=total damage to plant, 0=no damage to plant
# [30] = 15.625 g ai/ha, evaluated after 13 days (100=total damage to plant; 0=no damage to plant)
# [31] = 62.5 g ai/ha, evaluated after 13 days
# [32] = 250 g ai/ha, evaluated after 13 days
# [33] = 125 g ai/ha, visual injury after approximately 10 d, 0 to 100 scale where 0 is no effect and 100 is complete control
# [34] = 500 g ai/ha, visual injury approx. 10 d
# [35] = 125 g ai/ha, postemergence, visual rating after approx. 10 d, 0 to 100 scale (0 no effect, 100 complete control)
# [36] = Postemergence, 500 g ai/ha, 0 to 100 scale where 0 is no effect and 100 is complete control
smiles,measurement,setting,value
CN1CC(c2ccc(C(F)(F)F)cc2)C(C(=O)Nc2cccc(Cl)c2[N+](=O)[O-])C1=O (racemic) [Compound 1639],Barnyardgrass damage rating (100=total damage to plant; 0=no damage to plant),[1]; 15.625 g ai/ha,0
same,"plant damage rating, Barnyardgrass",[1]; [29],10
same,Barnyardgrass damage rating (100=total damage to plant; 0=no damage to plant),[1]; 250 g ai/ha,30
same,Corn damage rating (100=total damage to plant; 0=no damage to plant),[2]; 15.625 g ai/ha,0
same,"plant damage rating, Corn",[2]; [29],0
same,Corn damage rating (100=total damage to plant; 0=no damage to plant),[2]; 250 g ai/ha,0
same,"Foxtail, Giant damage rating (100=total damage to plant; 0=no damage to plant)",[3]; 15.625 g ai/ha,30
same,"plant damage rating, Foxtail, Giant",[3]; [29],60
same,"Foxtail, Giant damage rating (100=total damage to plant; 0=no damage to plant)",[3]; 250 g ai/ha,80
same,"Morning-glory, Ivy-leaved damage rating (100=total damage to plant; 0=no damage to plant)",[4]; 15.625 g ai/ha,0
same,"plant damage rating, Morningglory, Ivy-leaved",[4]; [29],0
same,"Morningglory, Ivy-leaved damage rating (100=total damage to plant; 0=no damage to plant)",[4]; 250 g ai/ha,0
same,"Pigweed, Redroot damage rating (100=total damage to plant; 0=no damage to plant)",[5]; 15.625 g ai/ha,0
same,"plant damage rating, Pigweed, Redroot",[5]; [29],20
same,"Pigweed, Redroot damage rating (100=total damage to plant; 0=no damage to plant)",[5]; 250 g ai/ha,30
same,Velvetleaf damage rating (100=total damage to plant; 0=no damage to plant),[6]; 15.625 g ai/ha,0
same,"plant damage rating, Velvetleaf",[6]; [29],0
same,Velvetleaf damage rating (100=total damage to plant; 0=no damage to plant),[6]; 250 g ai/ha,0
same,Barnyardgrass damage rating,[7]; [30],10
same,Barnyardgrass damage rating (100=total damage to plant; 0=no damage to plant),[7]; [31],30
same,"damage to plant, Barnyardgrass (100=total damage to plant; 0=no damage to plant)",[7]; [32],60
same,Corn damage rating,[8]; [30],0
same,Corn damage rating (100=total damage to plant; 0=no damage to plant),[8]; [31],0
same,"damage to plant, Corn (100=total damage to plant; 0=no damage to plant)",[8]; [32],10
same,"Foxtail, Giant damage rating",[9]; [30],30
same,"Foxtail, Giant damage rating (100=total damage to plant; 0=no damage to plant)",[9]; [31],70
same,"damage to plant, Foxtail, Giant (100=total damage to plant; 0=no damage to plant)",[9]; [32],80
same,"Morningglory, Ivy-leaved damage rating",[10]; [30],0
same,"Morningglory, Ivy-leaved damage rating (100=total damage to plant; 0=no damage to plant)",[10]; [31],10
same,"damage to plant, Morningglory, Ivy-leaved (100=total damage to plant; 0=no damage to plant)",[10]; [32],20
same,"Pigweed, Redroot damage rating",[11]; [30],0
same,"Pigweed, Redroot damage rating (100=total damage to plant; 0=no damage to plant)",[11]; [31],20
same,"damage to plant, Pigweed, Redroot (100=total damage to plant; 0=no damage to plant)",[11]; [32],60
same,Velvetleaf damage rating,[12]; [30],0
same,Velvetleaf damage rating (100=total damage to plant; 0=no damage to plant),[12]; [31],0
same,"damage to plant, Velvetleaf (100=total damage to plant; 0=no damage to plant)",[12]; [32],20
CN1CC(c2ccc(Br)cc2)C(C(=O)Nc2ccccc2F)C1=O (centres unmarked) [Compound 563],"Plant response rating, Kochia",[13]; [33],70
same,"Kochia plant response rating (0 to 100 scale, 0 is no effect, 100 is complete control)",[13]; [34],80
same,"Plant response rating, Barnyardgrass",[14]; [33],90
same,"Barnyardgrass plant response rating (0 to 100 scale, 0 is no effect, 100 is complete control)",[14]; [34],100
same,"Plant response rating, Foxtail, Giant",[15]; [33],90
same,"Foxtail, Giant plant response rating (0 to 100 scale, 0 is no effect, 100 is complete control)",[15]; [34],100
same,"Plant response rating, Pigweed",[16]; [33],70
same,"Pigweed plant response rating (0 to 100 scale, 0 is no effect, 100 is complete control)",[16]; [34],80
same,"Plant response rating, Ragweed",[17]; [33],50
same,"Ragweed plant response rating (0 to 100 scale, 0 is no effect, 100 is complete control)",[17]; [34],60
same,"Plant response rating, Ryegrass, Italian",[18]; [33],0
same,"Ryegrass, Italian plant response rating (0 to 100 scale, 0 is no effect, 100 is complete control)",[18]; [34],0
same,"Plant response rating, Galium",[19]; [35],70
same,"Plant response rating, Galium",[19]; [36],70
same,"Plant response rating, Kochia",[20]; [35],70
same,"Plant response rating, Kochia",[20]; [36],80
same,"Plant response rating, Barnyardgrass",[21]; [35],90
same,"Plant response rating, Barnyardgrass",[21]; [36],90
same,"Plant response rating, Blackgrass",[22]; [35],40
same,"Plant response rating, Blackgrass",[22]; [36],50
same,"Plant response rating, Corn",[23]; [35],20
same,"Plant response rating, Corn",[23]; [36],50
same,"Plant response rating, Foxtail, Giant",[24]; [35],90
same,"Plant response rating, Foxtail, Giant",[24]; [36],90
same,"Plant response rating, Pigweed",[25]; [35],0
same,"Plant response rating, Pigweed",[25]; [36],40
same,"Plant response rating, Ragweed",[26]; [35],0
same,"Plant response rating, Ragweed",[26]; [36],50
same,"Plant response rating, Ryegrass, Italian",[27]; [35],40
same,"Plant response rating, Ryegrass, Italian",[27]; [36],40
same,"Plant response rating, Wheat",[28]; [35],20
same,"Plant response rating, Wheat",[28]; [36],40
